Reference: patent US4725600A, “Pyrimidine compounds having activity as a cardiotonic anti-hypertensive cerebrovascular vasodilator and anti-platelet aggregation agent” (Fujisawa Pharmaceutical Co., Ltd., priority 1984, dated 1988)
Read-outs that look alike come from different tables or passages of the source.

Assays:
Mongrel dogs = experiment: Cardiotonic activity (Test Method A): percentage of dp/dt max change in anesthetized mongrel dogs; type: in vivo; conditions: Canis lupus familiaris, iv, injected into the femoral vein, read-out: dp/dt M.C. (percentage of dp/dt max changes)
Protocol: Mongrel dogs of either sex were anesthetized with sodium pentobarbital, 35 mg/kg, i.p. The animals were allowed to breathe spontaneously. The left carotid artery was isolated and a catheter (USCI, #8F) filled with heparinized saline was inserted and advanced into the left ventricle. The catheter was connected to a pressure transducer (Nihonkohden, MPU-0.5A) to measure the left ventricular pressure, from which dp/dt max was derived by analog computing. To measure the systemic blood pressure the left femoral artery was cannulated. The blood pressure pulse was used to trigger a heart rate meter. Another catheter was positioned in the vena cave through right femoral vein for injection of drugs. Systemic blood pressure, left ventricular pressure, dp/dt max and heart rate were recorded simultaneously on a polygram (Nihonkohden, RJG-4008).
Test compound was dissolved in distilled water (0.2 ml/kg) or dimethyl sulfoxide (0.04 ml/kg) and injected into the femoral vein. The parameters after dosing were compared with those during the predosing period.
Test results were represented in terms of percentage of dp/dt max changes (dp/dt M.C.) calculated by following formula, and are shown in table 1. [formula]

[1] = system: Platelet rich plasma (PRP); experiment: Anti-platelet activity (Test Method B): inhibition of ADP- or collagen-induced aggregation in rabbit platelet rich plasma; type: cell-based; conditions: Oryctolagus cuniculus, 37° C.
Protocol: Platelet rich plasma (PRP) which contains 6.5-7.5×10^8 platelet/ml was prepared from rabbit blood. To the 200 μl of PRP, 5 μl of calcium chloride (1 mM) and 50 μl of pH 7.4 Tris-acetate solution (5 mM) containing 120 mM NaCl and test compound were added successively, and then stirred for 2 min. at 37° C. To the solution 5 μl of adenosine diphosphate (ADP) (2.5 μM) or collagen (2.5 μg/ml) was added as an agregation inducer. Aggregation was measured by using an aggregometer (NKK HEMA TRACER 1).

male Wistar rats (DOCA) = experiment: Antihypertensive activity (Test Method C): maximum decrease of blood pressure in DOCA-treated uninephrectomized rats; type: in vivo; conditions: 1.0 mg/kg, oral; DOCA hypertensive rats, mean arterial pressure
Protocol: Antihypertensive activity
Five-week old male Wistar rats were uninephrectomized under anesthesia. Deoxycorticosterone acetate (DOCA) (30 mg/kg), suspended in peanut oil, was injected subcutaneously twice a week and 1% saline was substituted for the drinking water. Animals with mean blood pressure 150-200 mmHg were used for experiment between 5 and 7 weeks after surgery.
The test compounds were administered orally. Blood pressure was measured at the femoral artery by means of a pressure transducer and recorded as electrically integrated values of mean arterial pressure.

With `Nc1cc(-c2ccncc2)c[nH]c1=O` [Amrinone, 3-Amino-5-(4-pyridyl)-2(1H)-pyridinone, reference compound] the change in vivo at 0.1 mg/kg (Mongrel dogs) was 9%.
With `COc1ccc(-c2cc(=Nc3c(C)cc(C)cc3C)n(C)c(Cl)n2)cc1OC` [Example 1, 2-chloro-3,4-dihydro-6-(3,4-dimethoxyphenyl)-3-methyl-4-(2,4,6-trimethylphenylimino)pyrimidine] the change in vivo at 0.1 mg/kg (Mongrel dogs) was 45%.
Work on `COc1ccc(-c2cc(=Nc3c(C)cc(C)cc3C)n(C)cn2)cc1OC` [Example 2, 3,4-dihydro-6-(3,4-dimethoxyphenyl)-3-methyl-4-(2,4,6-trimethylphenylimino)pyrimidine] yielded a change in vivo at 0.1 mg/kg (Mongrel dogs) of 114%, an IC50 ([1]; aggregation inducer ADP (2.5 μM), pH 7.4, read-out: ID50, ADP) of 0.26 µM and an IC50 ([1]; aggregation inducer collagen (2.5 μg/ml), pH 7.4, read-out: ID50, Collagen) of 0.36 µM. For the same compound, the “Effect Max (mean ratio of maximum decrease of blood pressure)” value (male Wistar rats (DOCA)) was 39.0%.
With `COc1ccc(-c2cc(=Nc3c(C)cc(C)cc3C)n(C)c(N(C)Cc3ccccc3)n2)cc1OC` [Example 3, 3,4-dihydro-6-(3,4-dimethoxyphenyl)-3-methyl-2-(N-methyl-N-benzylamino)-4-(2,4,6-trimethylphenylimino)pyrimidine] the change in vivo at 0.1 mg/kg (Mongrel dogs) was 29%.
`COc1ccc(-c2cc(=Nc3c(C)cc(C)cc3C)n(C)c3nncn23)cc1OC` [Example 11, 7,8-dihydro-5-(3,4-dimethoxyphenyl)-8-methyl-7-(2,4,6-trimethylphenylimino)-1,2,4-triazolo[4,3-a]pyrimidine] was tested, and the change in vivo at 0.1 mg/kg (Mongrel dogs) was 60%.
For `COc1ccc(-c2cc(=Nc3c(C)cc(C)cc3C)n(C)c3nnnn23)cc1OC` [Example 12, 4,5-dihydro-7-(3,4-dimethoxyphenyl)-4-methyl-5-(2,4,6-trimethylphenylimino)tetrazolo[1,5-a]pyrimidine], the change in vivo at 0.1 mg/kg (Mongrel dogs) was 152%.
For `COc1ccc(-c2cc(=Nc3c(C)cc(C)cc3C)n(C)c(C)n2)cc1OC` [Example 18, 3,4-dihydro-6-(3,4-dimethoxyphenyl)-2,3-dimethyl-4-(2,4,6-trimethylphenylimino)pyrimidine], the change in vivo at 0.1 mg/kg (Mongrel dogs) was 72%.
`COc1ccc(-c2cc(N(C)c3c(C)cc(C)cc3C)nc(C)n2)cc1OC` [Examples (17-6) and 20, 6-(3,4-dimethoxyphenyl)-2-methyl-4-[N-methyl-N-(2,4,6-trimethylphenyl)amino]pyrimidine] was tested, and the change in vivo at 0.1 mg/kg (Mongrel dogs) was 76%.
In the case of `CCn1c(C)nc(-c2ccc(OC)c(OC)c2)cc1=Nc1c(C)cc(C)cc1C` [Examples (17-12) and (19-12), 3,4-Dihydro-6-(3,4-dimethoxyphenyl)-3-ethyl-2-methyl-4-(2,4,6-trimethylphenylimino)pyrimidine], the change in vivo at 0.1 mg/kg (Mongrel dogs) is reported as 87%.
